Settings: for surface tension liquid-gas: Drop volume; for mass density / kinematic viscosity / speed of sound / vapor or sublimation pressure: Liquid; for mass density: Vibrating tube method; for kinematic viscosity / speed of sound: 101.33 kPa; for kinematic viscosity: Capillary tube (Ostwald / Ubbelohde) method; for speed of sound: Sing-around technique in a fixed-path interferometer; for vapor or sublimation pressure: Ebulliometric method (Recirculating still)

Cc1ccc(C)o1 [2,5-dimethylfuran]
Settings	kinematic viscosity [m2/s]	speed of sound [m/s]	surface tension liquid-gas [mN/m]	vapor or sublimation pressure [kPa]
278.15 K	6.7e-07	1281.9	27.5	–
280.65 K	6.5e-07	1271.1	27.19	–
283.15 K	6.34e-07	1260.2	26.86	–
283.16 K	–	–	–	3.015
285.65 K	6.12e-07	1249.2	26.57	–
288.15 K	5.95e-07	1238.3	26.22	–
288.36 K	–	–	–	4.037
290.65 K	5.79e-07	1227.5	25.91	4.575
293.15 K	5.63e-07	1216.5	25.54	–
293.16 K	–	–	–	5.195
295.65 K	5.48e-07	1206.3	25.3	–
298.15 K	5.34e-07	1194.9	25	–
298.25 K	–	–	–	6.75
300.65 K	5.2e-07	1185	24.67	–
302.52 K	–	–	–	8.37
303.15 K	5.04e-07	1173.3	24.33	–
305.65 K	4.95e-07	1163.8	24.02	–
308.15 K	4.83e-07	1151.9	23.7	–
309.17 K	–	–	–	11.59
310.65 K	4.71e-07	1142.5	23.34	–
313.15 K	4.57e-07	1130.7	23.01	–
314.61 K	–	–	–	14.8
315.65 K	4.5e-07	1121.2	22.7	–
318.15 K	4.4e-07	1109.5	22.29	–
319.27 K	–	–	–	18.09
320.65 K	4.3e-07	1100	21.97	–
323.15 K	4.23e-07	1088.5	21.69	–
324.99 K	–	–	–	22.86
325.65 K	4.12e-07	1078.7	21.29	–
328.09 K	–	–	–	26.07
328.15 K	4.03e-07	1067.6	20.95	–
330.65 K	3.95e-07	1057.5	20.58	–
332.43 K	–	–	–	30.95
333.15 K	3.89e-07	1046.9	20.34	–
335.48 K	–	–	–	34.85
335.65 K	3.8e-07	1036.2	20.01	–
338.15 K	3.72e-07	1029.2	19.65	–
338.4 K	–	–	–	38.81
340.95 K	–	–	–	42.52
343.11 K	–	–	–	46.09
345.85 K	–	–	–	50.77
348.13 K	–	–	–	55.05
350.87 K	–	–	–	60.51
352.82 K	–	–	–	64.61
354.3 K	–	–	–	68.12
356.1 K	–	–	–	72.15
357.87 K	–	–	–	76.61
359.42 K	–	–	–	80.63
361.09 K	–	–	–	85.02
362.46 K	–	–	–	88.86
363.39 K	–	–	–	91.39
364.36 K	–	–	–	94.28
365.26 K	–	–	–	97.05
366.7 K	–	–	–	101.33

Settings	mass density [kg/m3]
278.15 K, 99 kPa	917.53
280.65 K, 99 kPa	914.899
283.15 K, 99 kPa	912.247
283.15 K, 100 kPa	912.25
283.15 K, 2500 kPa	914.37
283.15 K, 5000 kPa	916.47
283.15 K, 7500 kPa	918.52
283.15 K, 10000 kPa	920.53
283.15 K, 20000 kPa	928.2
283.15 K, 30000 kPa	935.24
283.15 K, 40000 kPa	941.89
283.15 K, 50000 kPa	948.12
283.15 K, 60000 kPa	953.98
285.65 K, 99 kPa	909.614
288.15 K, 99 kPa	906.988
288.15 K, 100 kPa	906.99
288.15 K, 2500 kPa	909.13
288.15 K, 5000 kPa	911.29
288.15 K, 7500 kPa	913.42
288.15 K, 10000 kPa	915.49
288.15 K, 20000 kPa	923.34
288.15 K, 30000 kPa	930.62
288.15 K, 40000 kPa	937.41
288.15 K, 50000 kPa	943.72
288.15 K, 60000 kPa	949.78
290.65 K, 99 kPa	904.299
293.15 K, 99 kPa	901.636
293.15 K, 100 kPa	901.64
293.15 K, 2500 kPa	903.82
293.15 K, 5000 kPa	906.07
293.15 K, 7500 kPa	908.26
293.15 K, 10000 kPa	910.4
293.15 K, 20000 kPa	918.5
293.15 K, 30000 kPa	925.97
293.15 K, 40000 kPa	932.94
293.15 K, 50000 kPa	939.57
293.15 K, 60000 kPa	945.6
295.65 K, 99 kPa	898.951
298.15 K, 99 kPa	896.285
298.15 K, 100 kPa	896.29
298.15 K, 2500 kPa	898.6
298.15 K, 5000 kPa	900.94
298.15 K, 7500 kPa	903.16
298.15 K, 10000 kPa	905.39
298.15 K, 20000 kPa	913.73
298.15 K, 30000 kPa	921.4
298.15 K, 40000 kPa	928.44
298.15 K, 50000 kPa	935.19
298.15 K, 60000 kPa	941.44
300.65 K, 99 kPa	893.569
303.15 K, 99 kPa	890.898
303.15 K, 100 kPa	890.9
303.15 K, 2500 kPa	893.25
303.15 K, 5000 kPa	895.65
303.15 K, 7500 kPa	897.97
303.15 K, 10000 kPa	900.25
303.15 K, 20000 kPa	908.83
303.15 K, 30000 kPa	916.74
303.15 K, 40000 kPa	924.06
303.15 K, 50000 kPa	930.89
303.15 K, 60000 kPa	937.27
305.65 K, 99 kPa	888.151
308.15 K, 99 kPa	885.447
308.15 K, 100 kPa	885.45
308.15 K, 2500 kPa	887.9
308.15 K, 5000 kPa	890.36
308.15 K, 7500 kPa	892.78
308.15 K, 10000 kPa	895.14
308.15 K, 20000 kPa	903.98
308.15 K, 30000 kPa	912.1
308.15 K, 40000 kPa	919.56
308.15 K, 50000 kPa	926.54
308.15 K, 60000 kPa	933.08
310.65 K, 99 kPa	882.693
313.15 K, 99 kPa	879.927
313.15 K, 100 kPa	879.93
313.15 K, 2500 kPa	882.45
313.15 K, 5000 kPa	885.02
313.15 K, 7500 kPa	887.51
313.15 K, 10000 kPa	889.95
313.15 K, 20000 kPa	899.05
313.15 K, 30000 kPa	907.41
313.15 K, 40000 kPa	915.12
313.15 K, 50000 kPa	922.3
313.15 K, 60000 kPa	928.9
315.65 K, 99 kPa	877.195
318.15 K, 99 kPa	874.437
318.15 K, 100 kPa	874.44
318.15 K, 2500 kPa	877.03
318.15 K, 5000 kPa	879.68
318.15 K, 7500 kPa	882.27
318.15 K, 10000 kPa	884.79
318.15 K, 20000 kPa	894.18
318.15 K, 30000 kPa	902.74
318.15 K, 40000 kPa	910.6
318.15 K, 50000 kPa	917.91
318.15 K, 60000 kPa	924.74
320.65 K, 99 kPa	871.651
323.15 K, 99 kPa	868.85
323.15 K, 100 kPa	868.85
323.15 K, 2500 kPa	871.55
323.15 K, 5000 kPa	874.3
323.15 K, 7500 kPa	876.94
323.15 K, 10000 kPa	879.54
323.15 K, 20000 kPa	889.25
323.15 K, 30000 kPa	898.07
323.15 K, 40000 kPa	906.13
323.15 K, 50000 kPa	913.67
323.15 K, 60000 kPa	920.58
325.65 K, 99 kPa	866.06
328.15 K, 99 kPa	863.248
328.15 K, 100 kPa	863.25
328.15 K, 2500 kPa	866.05
328.15 K, 5000 kPa	868.91
328.15 K, 7500 kPa	871.68
328.15 K, 10000 kPa	874.38
328.15 K, 20000 kPa	884.36
328.15 K, 30000 kPa	893.38
328.15 K, 40000 kPa	901.61
328.15 K, 50000 kPa	909.29
328.15 K, 60000 kPa	916.43
330.65 K, 99 kPa	860.418
333.15 K, 99 kPa	857.577
333.15 K, 100 kPa	857.58
333.15 K, 2500 kPa	860.47
333.15 K, 5000 kPa	863.42
333.15 K, 7500 kPa	866.28
333.15 K, 10000 kPa	869.07
333.15 K, 20000 kPa	879.4
333.15 K, 30000 kPa	888.7
333.15 K, 40000 kPa	897.22
333.15 K, 50000 kPa	905.17
333.15 K, 60000 kPa	912.4
335.65 K, 99 kPa	854.721
338.15 K, 99 kPa	851.85
338.15 K, 100 kPa	851.85
338.15 K, 2500 kPa	854.88
338.15 K, 5000 kPa	857.96
338.15 K, 7500 kPa	860.93
338.15 K, 10000 kPa	863.81
338.15 K, 20000 kPa	874.45
338.15 K, 30000 kPa	884.02
338.15 K, 40000 kPa	892.61
338.15 K, 50000 kPa	900.74
338.15 K, 60000 kPa	908.17
